15 compounds from PubChem BioAssay (NCI) can be followed below.

Molecules are shown by their SMILES. “And” between values parts separate entries of the source, which are not always exact repeats. Identical values can stand only once.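 Step 1: Grow cells in 96-well plates. Step 2: Expose to compound for 48 hours at 5 concentrations. Step 3: Interpolate endpoints linearly; if unreached, use highest concentration. The concentration for 50% growth inhibition is given as GI50. TGI denotes the concentration required for complete inhibition of growth.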 Where only a bound is given, the exact number is not on record here.

Among the test systems are 786-0 renal; A549 NSCLC; ACHN renal; HT29 colon; IGROV1 ovarian; OVCAR-5 ovarian; OVCAR-8 ovarian; SF-295 CNS; T-47D breast; TK-10 renal.
What all share (assay): NCI anticancer screen, dose series, 48 h

For `COc1ccc(-c2c(C#N)c(N)n(C3OC(COC(C)=O)C(OC(C)=O)C(OC(C)=O)C3OC(C)=O)c(=S)c2C#N)cc1` (stereo not given), the TGI in the assay with 786-0 renal is > 100 µM and 75.5 µM; in the assay on A549 NSCLC it was more than 100 µM; in the assay on ACHN renal, more than 100 µM; in the assay on HT29 colon it was more than 100 µM; in the assay on IGROV1 ovarian, more than 100 µM; with OVCAR-5 ovarian, more than 100 µM. Further, the TGI in the assay with OVCAR-8 ovarian is > 100 µM and 75.4 µM; in the assay with SF-295 CNS, more than 100 µM; in the assay with T-47D breast it was > 100 µM and 46.5 µM; in the assay with TK-10 renal, > 100 µM and 49.3 µM. Besides, the GI50 is 36.2 µM and > 100 µM with A549 NSCLC; 84.7 µM and 36.2 µM in the assay with HT29 colon; > 100 µM and 31.6 µM in the assay with IGROV1 ovarian; > 100 µM and 38.4 µM in the assay on OVCAR-5 ovarian; 50.5 µM and 21.9 µM with TK-10 renal.
Regarding `O=C1CCCC1C(O)(C(F)(F)Cl)C(F)(F)Cl` (stereo not given), the TGI with 786-0 renal, in the assay with A549 NSCLC, in the assay on ACHN renal, in the assay on HT29 colon, in the assay with IGROV1 ovarian and with OVCAR-5 ovarian was more than 10 µM in each case. Moreover, the TGI in the assay with OVCAR-8 ovarian, with SF-295 CNS, in the assay with T-47D breast and with TK-10 renal was more than 10 µM each time.
On to `CCOC(=O)CCNC(=O)c1cc(C)cc2c1Oc1c(cc(C)cc1C(=O)NCCC(=O)OCC)S2`, for which the TGI in the assay with 786-0 renal, with A549 NSCLC, with ACHN renal, with HT29 colon, in the assay on IGROV1 ovarian and in the assay on OVCAR-5 ovarian was more than 100 µM in each case. Further, the TGI in the assay on OVCAR-8 ovarian, in the assay with SF-295 CNS, in the assay with T-47D breast and in the assay on TK-10 renal was more than 100 µM in each case.
On to `Cc1cc(NS(=O)(=O)c2ccc(N=Nc3c(Nc4ccccc4)nn(-c4ccc(S(=O)(=O)Nc5ccncn5)cc4)c3C)cc2)no1`, for which the TGI in the assay on 786-0 renal, in the assay with A549 NSCLC, in the assay on ACHN renal, in the assay on HT29 colon, with IGROV1 ovarian and in the assay with OVCAR-5 ovarian was more than 100 µM throughout. Moreover, the TGI in the assay with OVCAR-8 ovarian, in the assay with SF-295 CNS, in the assay with T-47D breast and in the assay on TK-10 renal was more than 100 µM throughout.
Regarding `Cc1nc2ccccc2n1Cc1ccc(NC(=S)NC2CCCCC2)cc1`, the TGI in the assay with 786-0 renal is more than 100 µM; in the assay with A549 NSCLC, more than 100 µM; with ACHN renal it was 44.4 µM; in the assay on HT29 colon, more than 100 µM; in the assay on IGROV1 ovarian, more than 100 µM; with OVCAR-5 ovarian it was more than 100 µM. Also, the TGI was more than 100 µM in the assay on OVCAR-8 ovarian, more than 88.3 µM in the assay on SF-295 CNS, more than 82.3 µM in the assay on T-47D breast and more than 100 µM with TK-10 renal.
`CCOC(=O)C(/C=N/C(N)=S)=C(/O)c1ccccc1`: the TGI in the assay with 786-0 renal, in the assay with A549 NSCLC, in the assay with ACHN renal, with HT29 colon, in the assay with IGROV1 ovarian and with OVCAR-5 ovarian was more than 100 µM throughout. Besides, the TGI in the assay with OVCAR-8 ovarian, in the assay on SF-295 CNS, with T-47D breast and in the assay with TK-10 renal was more than 100 µM each time.
For the compound `N#C[C@H](c1nc2ccccc2[nH]1)c1nc2ccccc2nc1Cl`, the TGI is more than 100 µM with 786-0 renal; more than 100 µM in the assay on A549 NSCLC; more than 46 µM in the assay with ACHN renal; more than 52.2 µM in the assay with HT29 colon; 30.2 µM in the assay on IGROV1 ovarian; more than 66.2 µM with OVCAR-5 ovarian. Further, the TGI in the assay with OVCAR-8 ovarian is more than 100 µM; in the assay with SF-295 CNS, more than 100 µM; in the assay with T-47D breast it was 12.9 µM; in the assay with TK-10 renal it was 37.4 µM.
`COc1ccc2oc(=O)c(-c3nc4ccccc4s3)cc2c1`: the TGI in the assay on 786-0 renal is 20.5 µM; in the assay on A549 NSCLC, more than 41.9 µM; in the assay with ACHN renal, 12.7 µM; in the assay on HT29 colon, 33.1 µM; in the assay with IGROV1 ovarian it was 38.9 µM; in the assay on OVCAR-5 ovarian, more than 100 µM. The TGI was 36.9 µM in the assay with OVCAR-8 ovarian, more than 57.3 µM with SF-295 CNS, more than 100 µM with T-47D breast and more than 100 µM with TK-10 renal.
As for `C[C@@H](Br)[C@@H]1CC[C@H]2c3[nH]c4ccccc4c3CCN2C1`, the TGI is 36.6 µM in the assay on 786-0 renal; more than 100 µM in the assay with A549 NSCLC; more than 100 µM with ACHN renal; 67.8 µM in the assay on HT29 colon; 77.8 µM with IGROV1 ovarian; more than 100 µM in the assay on OVCAR-5 ovarian. The TGI was more than 100 µM in the assay with OVCAR-8 ovarian, 47.8 µM with SF-295 CNS, 61.2 µM in the assay on T-47D breast and more than 100 µM in the assay with TK-10 renal.
On to `COc1ccc(OC/C(N=Cc2cccnc2)=N/NC(=O)c2ccncc2)cc1`, for which the TGI in the assay with 786-0 renal, with A549 NSCLC, with ACHN renal, in the assay on HT29 colon, in the assay on IGROV1 ovarian and in the assay with OVCAR-5 ovarian was more than 100 µM throughout. Also, the TGI in the assay with OVCAR-8 ovarian, in the assay on SF-295 CNS, in the assay with T-47D breast and in the assay on TK-10 renal was more than 100 µM in each case.
Turning to `Cc1ccc(S(=O)(=O)N/N=C2/C3CC4CCC2C4C3)cc1` (stereo not given), the TGI in the assay with 786-0 renal, in the assay on A549 NSCLC, in the assay on ACHN renal, with HT29 colon, in the assay with IGROV1 ovarian and in the assay with OVCAR-5 ovarian was more than 100 µM in each case. In addition, the TGI in the assay on OVCAR-8 ovarian, in the assay with SF-295 CNS, with T-47D breast and in the assay on TK-10 renal was more than 100 µM in each case.
In the case of `CN1CCN2CCN(C)CCN(CC1)CC2`, the TGI in the assay on 786-0 renal, in the assay on A549 NSCLC, in the assay with ACHN renal, in the assay on HT29 colon, in the assay with IGROV1 ovarian and in the assay with OVCAR-5 ovarian was more than 100 µM in each case. Moreover, the TGI in the assay on OVCAR-8 ovarian, in the assay with SF-295 CNS, in the assay on T-47D breast and in the assay with TK-10 renal was more than 100 µM throughout.
Turning to `CCN(CC)C(=O)CCNC(C)Cc1c[nH]c2ccccc12` (stereo not given), the TGI in the assay with 786-0 renal, with A549 NSCLC, in the assay on ACHN renal, in the assay with HT29 colon, in the assay with IGROV1 ovarian and in the assay with OVCAR-5 ovarian was more than 100 µM in each case. The TGI in the assay with OVCAR-8 ovarian, in the assay with SF-295 CNS, in the assay on T-47D breast and with TK-10 renal was more than 100 µM throughout.
Turning to `COc1ccc([C@H]2C=C(c3cc(F)c(Cl)cc3Cl)N=c3s/c(=C\c4ccc(-c5ccc(Cl)cc5Cl)o4)c(=O)n32)cc1`, the TGI in the assay on 786-0 renal, in the assay on A549 NSCLC, with ACHN renal, with HT29 colon, with IGROV1 ovarian and in the assay with OVCAR-5 ovarian was more than 100 µM each time. Besides, the TGI in the assay with OVCAR-8 ovarian, in the assay on SF-295 CNS, with T-47D breast and in the assay on TK-10 renal was more than 100 µM throughout.
As for `Cc1c(OCc2cccc3ccccc23)ccc2c(=O)cc(S)oc12`, the TGI with 786-0 renal, with A549 NSCLC, in the assay on ACHN renal, in the assay on HT29 colon, in the assay with IGROV1 ovarian and with OVCAR-5 ovarian was more than 100 µM in each case. For the same compound, the TGI in the assay with OVCAR-8 ovarian was more than 100 µM; with SF-295 CNS it was 88.7 µM; with T-47D breast, more than 100 µM; in the assay on TK-10 renal it was more than 100 µM.
